The text below walks through data of patent US20260109707A1, “HETEROBIFUNCTIONAL COMPOUNDS AND METHODS OF TREATING DISEASE” (Halda Therapeutics OpCo. Inc., priority 2022, published 2026).

A value given as a limit tells only on which side of the number the result lay.

In one experiment the test system is VCaP cells. Briefly: Cellular growth inhibition assay for VCaP cells (CellTiter-Glo, 72 hours). The format is cell-based, human. To be noted: Homo sapiens, VCaP, 72 h. An outline of the steps: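 Luminescent viability signal after 72 h of compound exposure gave GI50 values by four-parameter nonlinear regression. Compounds were added in 0.5% DMSO to cells plated 24 h earlier at 5000/well in DMEM containing 10% FBS.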
A general note: Cellular ATP, detected with luciferase, serves as a proxy for viable cell number.

The test system of the next experiment is T47D cells. Briefly: Cellular growth inhibition assay for T47D cells (CellTiter-Glo, 72 hours). Conditions: Homo sapiens, T47D, 72 h, 72 hours treatment. The format is cell-based, human. The method in brief:
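Cells are plated at 3000/well and allowed 24 h before treatment. Test compound in medium containing 0.5% DMSO is then added, with DMSO-only wells as negative control, and plates are incubated 72 h at 37 °C. ATP luminescence (CellTiter-Glo 2.0) is then fitted to four parameters to derive GI50.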

The subject of experiment [1] is T-Rex 293 cell line SC3 cells having increased expression of androgen receptor protein due to exposure to doxycycline. Briefly: Cellular growth inhibition assay, T-Rex 293 SC3 cells with doxycycline (CellTiter-Glo, 72 hours). The format is cell-based. Conditions: 72 h, T-Rex 293 SC3 cells with increased androgen receptor expression due to doxycycline (10 ng/mL). An outline of the steps:
(§1)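 Doxycycline (10 ng/mL) was either included or omitted to toggle wild-type androgen receptor expression in SC3 cells, a T-Rex 293 clone, grown in stripped-serum, phenol red-free medium. After 72 hours with compound, viable cells were quantified by CellTiter-Glo 2.0.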

For experiment [2], the system named is T-Rex 293 cell line SC3 cells lacking increased expression of androgen receptor protein. Briefly: Cellular growth inhibition assay, T-Rex 293 SC3 cells without doxycycline (CellTiter-Glo, 72 hours). The format is cell-based. To be noted: 72 h, T-Rex 293 cell line SC3 cells not exposed to doxycycline (lacking increased androgen receptor expression). An outline of the steps: as §1

Consider `Cc1sc2c(c1C)C(c1ccc(C[C@@H]3CC[C@@]4(CCCN(c5ccc(C(=O)N[C@H]6CC[C@H](Oc7ccc(C#N)c(Cl)c7)CC6)nn5)C4)C3)cc1)=N[C@@H](Cc1ncco1)c1nnc(C)n1-2` [I-125], for which the GI50 (with VCaP cells; in the experiment with T47D cells; in experiment [1]; in experiment [2]) was less than 500 nM in each case.

Consider `Cc1sc2c(c1C)C(c1ccc(CCCN3CCCN(c4ccc(C(=O)N[C@H]5CC[C@H](Oc6ccc(C#N)c(Cl)c6)CC5)nn4)CC3)cc1)=N[C@@H](Cc1ncco1)c1nnc(C)n1-2` [I-126], for which the GI50 (in the experiment with VCaP cells; with T47D cells; in experiment [1]; in experiment [2]) was less than 500 nM each time.

For `Cc1sc2c(c1C)C(c1ccc(C[C@H]3C[C@H]([C@H]4CCCN(c5ccc(C(=O)N[C@H]6CC[C@H](Oc7ccc(C#N)c(Cl)c7)CC6)nn5)C4)C3)cc1)=N[C@@H](Cc1ncco1)c1nnc(C)n1-2` [I-131], the GI50 (as a rule, the concentration that inhibits growth by half) was less than 500 nM with VCaP cells, 500 to 1500 nM with T47D cells, less than 500 nM in experiment [1] and less than 500 nM in experiment [2].

On to `Cc1sc2c(c1C)C(c1ccc(N3CC4(CCN(c5ccc(C(=O)NC6CCC(Oc7ccc(C#N)c(Cl)c7)CC6)nn5)CC4)C3)cc1)=N[C@@H](Cc1ncco1)c1nnc(C)n1-2` (stereo partly drawn) [I-132, N-[4-(3-chloro-4-cyano-phenoxy)cyclohexyl]-6-[2-[4-[(9S)-4,5,13-trimethyl-9-(oxazol-2-ylmethyl)-3-thia-1,8,11,12-tetrazatricyclo[8.3.0.02,6]trideca-2(6),4,7,10,12-pentaen-7-yl]phenyl]-2,7-diazaspiro[3.5]nonan-7-yl]pyridazine-3-carboxamide], for which the GI50 (in the experiment on VCaP cells; in the experiment with T47D cells; in experiment [1]; in experiment [2]) was less than 500 nM throughout.

As for `Cc1sc2c(c1C)C(c1ccc(OC3CC4(CCN(c5ccc(C(=O)N[C@H]6CC[C@H](Oc7ccc(C#N)c(Cl)c7)CC6)nn5)CC4)C3)cc1)=N/C(=C/c1ncco1)c1nnc(C)n1-2` [I-135, N-[4-(3-chloro-4-cyano-phenoxy)cyclohexyl]-6-[2-[4-[(9E)-4,5,13-trimethyl-9-(oxazol-2-ylmethylene)-3-thia-1,8,11,12-tetrazatricyclo[8.3.0.02,6]trideca-2(6),4,7,10,12-pentaen-7-yl]phenoxy]-7-azaspiro[3.5]nonan-7-yl]pyridazine-3-carboxamide], the GI50 in the experiment on VCaP cells is less than 500 nM; in the experiment on T47D cells it was more than 3000 nM; in experiment [1], less than 500 nM; in experiment [2], more than 3000 nM.

For `Cc1sc2c(c1C)C(c1ccc(C#CCC3CCN(c4ccc(C(=O)N[C@H]5CC[C@H](Oc6ccc(C#N)c(Cl)c6)CC5)nn4)CC3)cc1)=N[C@@H](Cc1ncco1)c1nnc(C)n1-2` [I-136, N-[4-(3-chloro-4-cyano-phenoxy)cyclohexyl]-6-[4-[3-[4-[(9S)-4,5,13-trimethyl-9-(oxazol-2-ylmethyl)-3-thia-1,8,11,12-tetrazatricyclo[8.3.0.02,6]trideca-2(6),4,7,10,12-pentaen-7-yl]phenyl]prop-2-ynyl]-1-piperidyl]pyridazine-3-carboxamide], the GI50 (in the experiment on VCaP cells; in the experiment with T47D cells; in experiment [1]; in experiment [2]) was less than 500 nM each time.

Turning to `Cc1sc2c(c1C)C(c1ccc(C#CCC3CCN(c4ccc(C(=O)N[C@H]5CC[C@H](Oc6ccc(C#N)c(Cl)c6)CC5)nn4)CC3)cc1)=N[C@H](Cc1ncco1)c1nnc(C)n1-2` [I-137], the GI50 is 500 to 1500 nM in the experiment with VCaP cells, 1500 to 3000 nM in the experiment on T47D cells, less than 500 nM in experiment [1] and more than 3000 nM in experiment [2].

Take `Cc1sc2c(c1C)C(c1ccc(C#CC3CC4(C3)CN(c3ccc(C(=O)N[C@H]5CC[C@H](Oc6ccc(C#N)c(Cl)c6)CC5)nn3)C4)cc1)=N[C@@H](Cc1ncco1)c1nnc(C)n1-2` [I-138]: the GI50 (with VCaP cells; in the experiment with T47D cells; in experiment [1]; in experiment [2]) was less than 500 nM in each case.
